Assay results as given in patent US7452997B2 (priority 2004, dated 2008).
Like-named read-outs stand apart in the source and are kept apart here.

Key:
human CB2 receptor = human CB2 receptor (Homo sapiens, UniProt P34972); experiment: Binding assay, cannabinoid CB2 receptor ([3H]-CP-55,940 displacement); settings: Cannabinoid CB2 Receptor Binding IC50, human CB2 receptor, SK-N-MC cell membranes, radioligand CP-55,940 0.2 nM
How it was run: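 Membranes from SK-N-MC cells stably expressing human CB2, incubated with test compound and 0.2 nM [3H]-CP-55,940 for 90 min at 30 °C in Tris buffer pH 7.5 with fatty-acid-free BSA. Nonspecific binding defined with 10 uM WIN 55,212; filtration and scintillation counting, IC50 by linear regression.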

human CB1 receptor = biological target: T1, human CB1 receptor (Homo sapiens, UniProt P21554); experiment: biochemical; assay type: binding
T1 construct: expressed in transfected cells; host or cells: SK-N-MC cells, stably transfected with pcDNA3 CB-1 (human); semi-purified membrane pellet
T1 sequence (P21554 whole entry): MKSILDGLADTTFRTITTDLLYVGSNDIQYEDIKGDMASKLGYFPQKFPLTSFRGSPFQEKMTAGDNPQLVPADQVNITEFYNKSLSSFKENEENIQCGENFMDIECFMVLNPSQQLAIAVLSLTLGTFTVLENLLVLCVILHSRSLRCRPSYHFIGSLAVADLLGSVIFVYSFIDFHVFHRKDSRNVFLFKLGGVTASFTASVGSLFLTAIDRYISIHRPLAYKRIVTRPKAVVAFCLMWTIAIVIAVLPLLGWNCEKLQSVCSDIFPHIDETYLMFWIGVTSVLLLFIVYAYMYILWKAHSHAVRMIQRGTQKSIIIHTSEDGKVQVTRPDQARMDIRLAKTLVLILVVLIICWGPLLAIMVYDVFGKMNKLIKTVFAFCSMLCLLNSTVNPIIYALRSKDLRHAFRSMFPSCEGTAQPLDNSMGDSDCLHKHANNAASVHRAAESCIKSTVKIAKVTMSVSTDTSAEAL
How it was run: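 Membranes from SK-N-MC cells stably expressing human CB1, incubated 90 minutes at 30° C in Tris-HCl buffer with MgCl2, EDTA and fatty acid free BSA, pH 7.5. Bound counts collected by filtration and scintillation counting; IC50 from linear regression over varying compound concentrations.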

Chain of human CB2 receptor (P34972 whole entry): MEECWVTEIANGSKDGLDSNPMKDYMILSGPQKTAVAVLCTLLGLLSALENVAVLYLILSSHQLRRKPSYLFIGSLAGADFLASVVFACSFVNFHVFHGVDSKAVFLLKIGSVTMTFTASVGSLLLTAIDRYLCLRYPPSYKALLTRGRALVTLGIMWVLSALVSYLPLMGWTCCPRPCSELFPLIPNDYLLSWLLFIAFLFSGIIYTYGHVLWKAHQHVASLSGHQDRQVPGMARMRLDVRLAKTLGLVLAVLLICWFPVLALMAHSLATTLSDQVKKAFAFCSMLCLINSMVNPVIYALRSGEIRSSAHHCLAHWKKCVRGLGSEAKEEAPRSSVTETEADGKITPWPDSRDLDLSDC

Compound	IC50 (human CB2 receptor) [µM]	IC50 (human CB1 receptor) [µM]	IC50 (human CB1 receptor; human CB1 receptor, SK-N-MC cell membranes, radioligand CP-55,940 0.2 nM, read-out: Cannabinoid CB1 Receptor Binding IC50) [µM]
CCOC(=O)C1C2CCC(C2)C1NC(=O)c1nn(Cc2ccc(C)cc2)c2c1CCCC2 (stereo not drawn) [compound 126]	0.593	0.597	–
O=C(NNC1CCCCC1)c1nn(C2CCCCC2)c2c1CCCC2 [compound 31]	0.195	1.69	–
C[C@@H]1[C@@H](NC(=O)c2nn(C3CCCCC3)c3c2CCCC3)C[C@H]2C[C@@H]1C2(C)C [compound 216]	0.07	2.8	–
CCOC(=O)[C@H]1CCc2c(c(C(=O)NC3C4CC5CC(C4)CC3C5)nn2Cc2ccccc2)C1 (stereo partly drawn) [compound 210]	0.008	0.335	–
O=C(NCC12CC3CC(CC(C3)C1)C2)c1nn(-c2ccc(F)cc2)c2c1CCCC2CCc1ccccc1 (stereo not drawn) [compound 152]	0.2	0.34	–
O=C(NCC12CC3CC(CC(C3)C1)C2)c1nn(Cc2ccccc2)c2c1CCCC2 [compound 135]	0.02	0.67	–
O=C(NCC12CC3CC(CC(C3)C1)C2)c1nn(-c2ccc(F)cc2)c2c1CCCC2c1ccccc1 (stereo not drawn) [compound 145]	1.1	0.95	–
O=C(NNC1CCCCC1)c1nn(Cc2ccccc2)c2c1CCCC2 [compound 29]	0.115	0.79	–
C[C@@H](NC(=O)c1nn(Cc2ccccc2)c2c1CCCC2)c1ccccc1 [compound 199]	0.01	0.019	–
O=C(CCc1nn(C2CCCCC2)c2c1CCCC2)N[C@@H]1CCCC[C@H]1CO [compound 51]	8.42	15.2	–
COC(=O)C(Cc1ccc(O)cc1)NC(=O)c1nn(C2CCCCC2)c2c1CCCC2 (stereo not drawn) [compound 77]	0.003	0.052	–
CC12CCC(C1)C(C)(C)C2NC(=O)c1nn(-c2ccc(Cl)cc2)c2c1CCCC2 (stereo not drawn) [compound 12]	0.0214	0.148	–
CCOC(=O)[C@@H]1CCCC[C@H]1NC(=O)c1nn(-c2ccc(F)cc2)c2c1CCCC2 [compound 34]	0.0409	0.136	–
CCOC(=O)[C@H]1C2C=CC(C2)[C@H]1NC(=O)c1nn(Cc2ccccc2)c2c1CCCC2 (stereo partly drawn) [compound 276]	0.25	0.135	–
O=C(NC1CC2CCC1C2)c1nn(-c2ccc(F)cc2)c2c1CCCC2 (stereo not drawn) [compound 20]	0.0352	0.169	–
CC(C)(C)OC(=O)C1CCc2c(c(C(=O)NC3C4CC5CC(C4)CC3C5)nn2C2CCCCC2)C1 (stereo not drawn) [compound 233]	0.88	1.6	–
COC(=O)C(Cc1ccc(O)cc1)NC(=O)c1c2c(nn1-c1ccc(OC)cc1)CCCC2 (stereo not drawn) [compound 6]	0.367	6.75	–
O=C(NCC1CCCCC1)c1nn(C2CCCCC2)c2c1CCCC2 [Cpd 304, 1-cyclohexyl-4,5,6,7-tetrahydro-1H-indazole-3-carboxylic acid cyclohexylmethylamide]	0.02	0.16	–
CC(NC(=O)c1nn(C2CCCCC2)c2c1CCCC2)[C@H]1CC[C@H](C)CC1 (stereo partly drawn) [compound 248]	0.02	–	0.16
CCOC(=O)C1C2CCC(C2)C1NC(=O)c1c2c(nn1Cc1ccccc1)CCCC2 (stereo not drawn) [compound 42]	0.64	10.7	–
CC(NC(=O)c1nn(-c2ccc(F)cc2)c2c1CCCC2CCc1ccccc1)C12CC3CC(CC(C3)C1)C2 (stereo not drawn) [compound 153]	0.06	1.39	–

Compound	IC50 (human CB2 receptor) [µM]	IC50 (human CB1 receptor) [µM]	IC50 (human CB1 receptor; human CB1 receptor, SK-N-MC cell membranes, radioligand CP-55,940 0.2 nM, read-out: Cannabinoid CB1 Receptor Binding IC50) [µM]
Cc1ccc(-n2nc(C(=O)NC3C4(C)CCC(C4)C3(C)C)c3c2CCCC3)cc1 (stereo not drawn) [compound 11]	0.0406	0.285	–
CCOC(=O)C1CCc2c(c(C(=O)NC3C4CCC(C4)C3C(=O)OCC)nn2C2CCCCC2)C1 (stereo not drawn) [compound 137]	1.55	3.95	–
CC(NC(=O)c1nn(C2CCCCC2)c2c1CCCC2O)C12CC3CC(CC(C3)C1)C2 (stereo not drawn) [compound 163]	0.21	4.77	–
O=C(CCc1nn(C2CCCCC2)c2c1CCCC2)N[C@@H]1C2CCC(C2)[C@@H]1CO (stereo partly drawn) [compound 52]	4.9	6.26	–
CC1(C)C2CCC1(C)C(NC(=O)c1nn(C3CCCCC3)c3c1CCCC3)C2 (stereo not drawn) [compound 25]	0.0016	0.0753	–
O=C(NC1C2CC3CC(C2)CC1C3)c1nn(C2CCCCC2)c2c1CC(C(=O)O)CC2 (stereo not drawn) [Cpd 223, 3-(adamantan-2-ylcarbamoyl)-1-cyclohexyl-4,5,6,7-tetrahydro-1H-indazole-5-carboxylic acid]	2.9	170	–
CCOC(=O)[C@H]1C2CCC(C2)[C@H]1NC(=O)C(C)(C)Cc1nn(C2CCCCC2)c2c1CCCC2 (stereo partly drawn) [compound 281]	16.5	19.7	–
O=C(NCC1CCCCC1)c1nn(Cc2ccccc2)c2c1CCCC2 [compound 189]	0.01	0.01	–
CCOC(=O)C1CCc2nn(C3CCCCC3)c(C(=O)NC3C4CC5CC(C4)CC3C5)c2C1 (stereo not drawn) [compound 221]	0.46	3.29	–
COc1ccc(C(O)CNC(=O)c2nn(C3CCCCC3)c3c2CCCC3)cc1 (stereo not drawn) [Cpd 241, 1-cyclohexyl-4,5,6,7-tetrahydro-1H-indazole-3-carboxylic acid [2-hydroxy-2-(4-methoxy-phenyl)-ethyl]-amide]	0.5	3.4	–
CCOC(=O)C1CCCc2c1c(C(=O)NCC13CC4CC(CC(C4)C1)C3)nn2Cc1ccccc1 (stereo not drawn) [compound 159]	0.13	0.74	–
O=C(NC1C2CC3CC(C2)CC1C3)c1nn(C2CCCCC2)c2c1CC(NC(=O)N1CCOCC1)CC2 (stereo not drawn) [compound 90]	1.12	1.84	–
CCOC(=O)C1CCCc2c1c(C(=O)NC1C3CC4CC(C3)CC1C4)nn2C1CCCCC1 (stereo not drawn) [compound 71]	0.5	0.53	–
CN(C)C(=O)NC1CCc2c(c(C(=O)NC3C4CC5CC(C4)CC3C5)nn2C2CCCCC2)C1 (stereo not drawn) [Cpd 89, 1-cyclohexyl-5-(3,3-dimethyl-ureido)-4,5,6,7-tetrahydro-1H-indazole-3-carboxylic acid adamantan-2-ylamide]	0.0014	3.7	–
CC12CCC(C1)C(C)(C)C2NC(=O)c1nn(C2CCCCCC2)c2c1CCCC2 (stereo not drawn) [compound 74]	0.0014	0.015	–
C[C@H](NC(=O)c1nn(Cc2ccccc2)c2c1CCCC2)C1CCCCC1 [compound 201]	0.002	0.0017	–
CC(NC(=O)c1nn(C2CCCCC2)c2c1CCCC2)C1CCC1 (stereo not drawn) [compound 247]	0.047	0.26	–
O=C(NC12CC3CC(CC(C3)C1)C2)c1nn(-c2ccc(Cl)cc2Cl)c2c1CCCC2 [compound 139]	0.3	0.16	–
CCOC(=O)[C@H]1C2C=CC(C2)[C@H]1NC(=O)c1c2c(nn1Cc1ccccc1)CCCC2 (stereo partly drawn) [compound 275]	1.3	0.323	–
Cc1ccc(Cn2nc(C(=O)NC3C4(C)CCC(C4)C3(C)C)c3c2CCCC3)cc1 (stereo not drawn) [compound 125]	0.0022	0.026	–
O=C(NC12CC3CC(CC(C3)C1)C2)c1nn(-c2ccc(F)cc2)c2c1CCCC2CCc1ccccc1 (stereo not drawn) [compound 150]	0.04	0.13	–
